# Data: publication PMC3910367 (Science signaling, 2013)
# Where two headings read alike, the source gives them in different places.
# Assays:
# PH domain of PHLPP1 = molecular target: T1, PH domain of PHLPP1 (Homo sapiens, UniProt O60346); assay: SPR binding to GST-tagged PH domain of PHLPP1
# T1 sequence (O60346 536-636 limits assumed): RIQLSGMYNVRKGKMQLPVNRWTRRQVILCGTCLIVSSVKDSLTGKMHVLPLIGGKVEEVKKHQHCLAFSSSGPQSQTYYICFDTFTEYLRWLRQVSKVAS
# PH domain of Akt = PH domain of Akt (Homo sapiens, UniProt P31749); assay: SPR binding to GST-tagged PH domain of Akt; conditions: read-out: Kd, wild-type Akt PH domain
# Sequence of PH domain of Akt (P31749 5-108 limits assumed): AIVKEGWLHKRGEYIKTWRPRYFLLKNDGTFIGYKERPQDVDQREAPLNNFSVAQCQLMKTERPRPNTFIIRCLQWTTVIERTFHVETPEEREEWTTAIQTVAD
# LNCaP and PC-3 cells = assay: MTT viability assay in prostate cancer cells; assay type: cell-based; conditions: read-out: IC50, antiproliferative effect (cell viability)
# mTORC2 = assay: Western blot of mTORC2 components and downstream targets; assay type: cell-based; conditions: fig. S2C
# LNCaP cells [1] = assay type: cell-based; conditions: 24 hours
# [2] = test system: normal prostate epithelial cells; assay: MTT viability assay in normal prostate epithelial cells; assay type: cell-based; conditions: for apoptosis in normal prostate epithelial cells: fig. S1A
# [3] = molecular target: Y38G PH domain mutant of Akt (Homo sapiens, UniProt P31749, Y38G); assay: SPR binding to Y38G Akt PH domain mutant; conditions: versus wild-type PH domain
# Sequence of Y38G PH domain mutant of Akt (P31749 5-108 Y38G limits assumed): as the sequence (P31749 5-108 limits assumed) above, with Y34G counted along it
# LNCaP-abl cells = assay: MTT viability assay in LNCaP-abl cells; assay type: cell-based; conditions: read-out: IC50, antiproliferative effect, fig. S5D
# LNCaP cells [4] = assay: Cholesterol content of membrane subfractions; assay type: cell-based; conditions: fractions 3 and 4
# Akt = assay: Western blot of Akt phosphorylation in prostate cancer cells; assay type: cell-based; conditions: for phosphorylation at Ser473 in Akt / phosphorylation at Thr308 in Akt: LNCaP and PC-3 cells, 24 hours; for concentrations required to induce PHLPP1-mediated Akt inhibition: prostate cancer cells
# PIP3 = assay: Radiometric analysis of phosphoinositide production; assay type: cell-based; conditions: LNCaP cells, 500 μM, 6 hours
binding to PH domains of Akt and PHLPP1 compared (PH domain of PHLPP1),Kd (PH domain of Akt),"IC50 (LNCaP and PC-3 cells; LNCaP and PC-3 cells, MTT, 24 hours, serum-free medium)",effect of Y38G mutation on binding affinity for the Akt PH domain [3],IC50 (LNCaP-abl cells),IC50 (LNCaP and PC-3 cells; 24 h),Compound,phosphorylation of SGK or PKCα (mTORC2 downstream targets) (mTORC2),decrease in phosphorylation of Ser473 in Akt in non-raft fractions (LNCaP cells [1]),increase in association of PHLPP1 with the membrane in non-raft fractions (LNCaP cells [1]),"IC50 ([2]; read-out: IC50, cell viability, MTT, 24 hours)",reduction of cholesterol content in raft domains (LNCaP cells [4]),phosphorylation at Ser473 in Akt (Akt),phosphorylation at Thr308 in Akt (Akt),PIP3 concentrations (PIP3),apoptosis in normal prostate epithelial cells [2],concentrations required to induce PHLPP1-mediated Akt inhibition (Akt)
equal potency,3.4 µM,15 to 20 µM,significantly enhanced,10 µM,–,Cc1c(C)c2c(c(C)c1O)CCC(C)(CCCC(C)C)O2 (stereo not drawn) [α-VE5],lack of changes,more than 65%,more than 2.5 fold,~50 µM,≤ 30%,parallel reduction,without disturbing,–,–,–
–,–,–,–,–,~400 µM,Cc1c(C)c2c(c(C)c1O)CC[C@@](C)(CCC[C@H](C)CCC[C@H](C)CCCC(C)C)O2 [α-tocopherol],no effect,–,–,–,–,dose-dependently reduced,without altering,unaffected,resistant,greater than 150 μM
–,–,–,–,–,100 to 150 µM,Cc1c(O)cc2c(c1C)O[C@](C)(CCC[C@H](C)CCC[C@H](C)CCCC(C)C)CC2 [γ-tocopherol],no effect,–,–,–,–,dose-dependently reduced,without altering,–,resistant,greater than 150 μM
